Measured values from PubChem BioAssay AID2065 (Southern Research Specialized Biocontainment Screening …, 2009).
The source made the active and inactive calls. No rule for the calls is given here.

System: West Nile virus-infected cells, virus titer reduction
Assay: West Nile virus yield reduction, cell-based, synthesized compounds (AID 2065)
Conditions: at 20 µM (top of the series)

| SMILES | log titer change, negative = inhibition |
| --- | --- |
| COc1ccc(-c2csc(N(CCCN(C)C)C(=O)c3ccccc3C)n2)cc1 | -0.48 (inactive) |
| O=C(CSc1nc2ccccc2c(=O)n1-c1ccc(F)cc1F)Nc1ccc2c(c1)CCC2 | -3.82 |
| CN(C)CCCN1c2ccc([N+](=O)[O-])cc2CCc2cc([N+](=O)[O-])ccc21 | -3.82 |
| OC1c2cc(Br)ccc2N=C2CCCN21 (stereo not given) | -5.53 |
| O=C(CSc1nc2ccccc2c(=O)n1-c1ccc(F)cc1F)Nc1ccc(N2CCOCC2)cc1 | -4.15 |
| CCN(CC)CCCNC(=S)N1CCN(c2nc(-c3ccccc3)cs2)CC1 | -5.48 |
| CN(C)CCCNC(=S)N1CCN(c2nc(-c3ccccc3)cs2)CC1 | -2.32 |
| CCOC(=O)C1(Cc2ccccc2C(F)(F)F)CCN(C2CCN(C(C)C)CC2)CC1 | 1.18 (inactive) |
| COc1ccc(-c2csc(N(CCCN(C)C)C(=O)c3ccccc3Cl)n2)cc1 | -3.82 |
| O=C(CSc1nc2ccccc2c(=O)n1-c1ccc(F)cc1)Nc1ccc2c(c1)CCC2 | -4.18 |
